Laboratory results from patent publication US20260021061A1, “ARIADNE AND ANALOGS FOR THE TREATMENT OF NEUROLOGICAL AND NEUROMUSCLAR DISORDERS” (priority 2022, published 2026).
Read-outs that look alike come from different tables or passages of the source.

Columns and labels:
Cyclooxygenase COX-1 = biological target: T1, Cyclooxygenase COX-1 (Homo sapiens, UniProt P23219); assay: SafetyScreen44 116030; assay type: biochemical; details: 10 μM; Arachidonic acid; recombinant
T1 construct: Eurofins-Panlabs (contract screen) 116030
T1 sequence (P23219 24-599): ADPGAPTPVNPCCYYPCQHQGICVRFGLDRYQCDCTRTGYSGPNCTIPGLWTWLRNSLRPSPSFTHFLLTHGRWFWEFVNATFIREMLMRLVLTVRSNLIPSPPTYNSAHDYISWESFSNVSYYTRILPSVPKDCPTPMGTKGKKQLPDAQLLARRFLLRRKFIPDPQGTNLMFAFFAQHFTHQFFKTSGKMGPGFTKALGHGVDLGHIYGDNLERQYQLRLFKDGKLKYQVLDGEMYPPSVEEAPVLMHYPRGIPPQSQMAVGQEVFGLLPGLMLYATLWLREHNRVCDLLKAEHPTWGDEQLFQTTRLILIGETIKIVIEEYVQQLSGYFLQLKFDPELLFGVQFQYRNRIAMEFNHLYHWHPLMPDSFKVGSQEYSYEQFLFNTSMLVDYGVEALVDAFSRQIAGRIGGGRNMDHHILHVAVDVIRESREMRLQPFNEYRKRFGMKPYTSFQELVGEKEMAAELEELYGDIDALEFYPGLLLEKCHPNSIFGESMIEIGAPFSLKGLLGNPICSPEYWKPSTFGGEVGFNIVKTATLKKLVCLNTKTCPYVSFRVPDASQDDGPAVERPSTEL
Method: (§1) A broad screen of 44 molecular targets (SafetyScreen44, Eurofins-Panlabs) for Ariadne were performed, which includes G protein-coupled receptors, steroid nuclear receptors, ion channels, neurotransmitter transporters, and metabolic and signaling enzymes. Only two molecular targets, 5-HT2A and 5-HT2B receptors, emerged above the positive hit threshold, defined as 50% displacement of standard radioligands by 10 uM concentration of Ariadne (FIG. 1b, and Table 1).
(§2) For species, “H”=human, “R”=rat. Test compound screened at all targets at concentration of 10 μM.

Monoamine Oxidase MAO-A = biological target: T2, Monoamine Oxidase MAO-A (Homo sapiens, UniProt P21397); assay: SafetyScreen44 140010; assay type: biochemical; details: 10 μM; Kynuramine; recombinant
T2 construct: Eurofins-Panlabs (contract screen) 140010
T2 sequence (P21397 whole entry): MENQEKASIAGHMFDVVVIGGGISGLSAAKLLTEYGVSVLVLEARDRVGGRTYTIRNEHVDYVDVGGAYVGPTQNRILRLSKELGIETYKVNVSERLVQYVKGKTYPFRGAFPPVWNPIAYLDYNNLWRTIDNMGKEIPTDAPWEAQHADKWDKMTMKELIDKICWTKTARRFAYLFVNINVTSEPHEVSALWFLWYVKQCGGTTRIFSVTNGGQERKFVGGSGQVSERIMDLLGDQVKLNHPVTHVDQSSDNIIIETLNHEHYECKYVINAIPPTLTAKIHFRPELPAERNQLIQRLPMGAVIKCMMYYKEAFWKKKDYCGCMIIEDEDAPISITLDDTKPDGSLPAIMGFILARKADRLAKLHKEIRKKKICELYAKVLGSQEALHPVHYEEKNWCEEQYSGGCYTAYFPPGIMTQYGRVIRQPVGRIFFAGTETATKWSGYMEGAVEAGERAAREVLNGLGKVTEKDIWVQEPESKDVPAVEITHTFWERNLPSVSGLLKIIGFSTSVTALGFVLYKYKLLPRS
Method: as §1, §2

[1] = biological target: T3, Serotonin (5-Hydroxytryptamine) 5-HT2B (Homo sapiens, UniProt P41595); assay: SafetyScreen44 271700; assay type: binding; details: 10 μM, [3H]Lysergic acid diethylamide (LSD), recombinant
T3 construct: purchased Eurofins-Panlabs (contract screen SafetyScreen44) assay ID 271700
T3 sequence (P41595 whole entry): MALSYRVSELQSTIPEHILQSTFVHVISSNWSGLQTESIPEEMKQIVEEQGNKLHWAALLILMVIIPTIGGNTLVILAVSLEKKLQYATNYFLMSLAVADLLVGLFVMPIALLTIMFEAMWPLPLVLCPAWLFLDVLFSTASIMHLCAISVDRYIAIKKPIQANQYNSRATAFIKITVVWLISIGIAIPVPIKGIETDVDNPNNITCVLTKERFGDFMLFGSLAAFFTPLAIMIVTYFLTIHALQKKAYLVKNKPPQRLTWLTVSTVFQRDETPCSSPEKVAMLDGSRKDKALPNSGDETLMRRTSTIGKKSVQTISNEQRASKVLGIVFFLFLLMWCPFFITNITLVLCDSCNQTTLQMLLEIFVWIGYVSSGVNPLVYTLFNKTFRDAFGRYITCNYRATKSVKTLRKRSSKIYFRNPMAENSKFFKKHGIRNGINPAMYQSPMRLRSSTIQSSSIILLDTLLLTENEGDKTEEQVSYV
Method: as §1, §2

hDAT = hDAT (Homo sapiens, UniProt Q01959); assay: DAT fluorescence uptake inhibition; assay type: cell-based
hDAT, sequence (Q01959 whole entry): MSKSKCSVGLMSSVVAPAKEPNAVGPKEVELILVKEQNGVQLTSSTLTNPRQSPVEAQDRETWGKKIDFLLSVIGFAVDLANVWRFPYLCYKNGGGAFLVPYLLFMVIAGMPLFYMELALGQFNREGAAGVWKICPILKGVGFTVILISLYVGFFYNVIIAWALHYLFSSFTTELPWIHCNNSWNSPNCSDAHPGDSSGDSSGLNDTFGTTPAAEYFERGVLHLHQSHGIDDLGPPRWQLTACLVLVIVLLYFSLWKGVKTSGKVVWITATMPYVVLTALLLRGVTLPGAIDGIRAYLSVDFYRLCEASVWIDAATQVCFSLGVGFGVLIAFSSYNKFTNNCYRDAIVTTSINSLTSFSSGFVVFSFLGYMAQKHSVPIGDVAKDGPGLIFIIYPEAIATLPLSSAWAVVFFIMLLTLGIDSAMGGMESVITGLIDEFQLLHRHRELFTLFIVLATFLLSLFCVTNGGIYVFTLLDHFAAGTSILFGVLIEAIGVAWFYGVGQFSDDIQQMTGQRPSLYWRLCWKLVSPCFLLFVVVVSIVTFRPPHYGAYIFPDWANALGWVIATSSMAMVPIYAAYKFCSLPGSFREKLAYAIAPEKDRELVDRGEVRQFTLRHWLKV

[2] = Pharmacokinetic assessment, plasma and brain; assay type: in vivo, male C57BL/6 mice; details: for Mean plasma Concentration (ng/mL): LLOQ 5.16 ng/mL; for Mean brain Concentration (ng/g): LLOQ 2.06 ng/mL for brain
Method: PK assessments were performed at Sai Life (Telangana, India) according to the following general procedure. A total twenty-seven male C57BL/6 mice were used in this study with 3 mice per time point. Animals were administered subcutaneously at 10 mg/kg dose of test article. The formulation vehicle used was 0.9% normal saline. Blood samples (approximately 60 μL) were collected under light isoflurane anesthesia (Surgivet®) from retro orbital plexus from a set of three mice at 0.08, 0.25, 0.5, 1, 2, 4, 8, 24 and 48 hr. Immediately after blood collection, plasma was harvested by centrifugation at 4000 rpm, 10 min at […] and samples were stored at −70±10° C. until bioanalysis. Following blood collection, immediately animals were sacrificed followed by cutting abdominal vena-cava and whole body was perfused from heart using 10 mL of normal saline. Brain samples were collected from set of three mice at 0.08, 0.25, 0.5, 1, 2, 4, 8, 24 and 48 hr. After isolation, brain samples were rinsed three times in ice cold normal saline (for 5-10 seconds/rinse using ˜5-10 mL normal saline in disposable petri dish for each rinse) and dried on blotting paper. Brain samples were homogenized using ice-cold phosphate buffer saline (pH−7.4). Total homogenate volume was three times the tissue weight. All homogenates were stored below −70±10° C. until bioanalysis. All samples were processed for analysis by protein precipitation method and analyzed with fit-for-purpose LC-MS/MS method (LLOQ=5.16 ng/mL for plasma and 2.06 ng/mL for brain).

5-HT2B = 5-HT2B (Homo sapiens, UniProt P41595); assay: G protein (Gq) dissociation BRET assay
5-HT2B, sequence (P41595 whole entry): as the sequence (P41595 whole entry) above
Method: (§3) All BRET assays were conducted using BRET2 in HEK293T cells (ATCC CRL-11268; mycoplasma-free), which were subcultured in high-glucose DMEM (VWR) supplemented with 10% FBS (Life Technologies).
(§4) Constructs in G protein-dissociation BRET assays were derived from the codon-optimized Tango pcDNA3.1 library (Addgene) with V2tail/TEV/tTA encoding regions deleted to yield “de-Tango” constructs. […] All Gα-Rluc8, Beta, and GFP2-γ constructs were derived from the TRUPATH pcDNA5/FRT/TO library (Addgene).
(§5) Approximately 48 hours before assays, cells were transfected using a reverse transfection method and plated in 1% dFBS at an approximate density of 15,000 cells per well into poly-L-lysine-coated 384-well white assay plates (Grenier Bio-One). For G protein-dissociation assays, cells were transfected in a 1:1:1:1 ratio of receptor: Gα-Rluc8: Beta: GFP2-γ constructs. […] All transfections were prepared in Opti-MEM (Invitrogen) and used a 3:1 ratio of TransIT-2020 (Mirus) uL:ug total DNA.
On the day of the assay, plates were decanted and 20 uL of drug buffer per well (1×HBSS, 20 mM HEPES, pH 7.4) was added using a Multidrop (ThermoFisher Scientific), and plates were allowed to equilibrate at 37° C. in a humidified incubator before receiving drug stimulation. Drug dilutions of all compounds were performed in McCorvy buffer (1×HBSS, 20 mM HEPES, pH 7.4, supplemented with 0.3% BSA fatty acid free (GoldBio), and 0.03% ascorbic acid). […] Next, plates were incubated at 37° C. in a humidified incubator for 60 minutes or specified time point. Before reading, addition of coelenterazine 400a (5 uM final concentration; Nanolight Technology) was performed by the [sequence]. Immediately after, plates were read at 400 nm Rluc and fluorescent GFP2 emission at 510 nm for BRET2 at 0.8 second per well using a PheraStarFSX (BMB Lab Tech).
(§6) The BRET ratios of 510/400 luminescence were calculated per well and were plotted as a function of drug concentration using Graphpad Prism 5 or 9 (Graphpad Software Inc., San Diego, CA). Data were normalized to % positive control stimulation and analyzed using nonlinear regression “log(agonist) vs. response” to yield Emax and EC50 parameter estimates.

5-HT7a receptor = 5-HT7a receptor (Homo sapiens, UniProt P34969); assay: 5-HTome G protein activation BRET assay
5-HT7a receptor, sequence (P34969 1-445 isoform P34969-2): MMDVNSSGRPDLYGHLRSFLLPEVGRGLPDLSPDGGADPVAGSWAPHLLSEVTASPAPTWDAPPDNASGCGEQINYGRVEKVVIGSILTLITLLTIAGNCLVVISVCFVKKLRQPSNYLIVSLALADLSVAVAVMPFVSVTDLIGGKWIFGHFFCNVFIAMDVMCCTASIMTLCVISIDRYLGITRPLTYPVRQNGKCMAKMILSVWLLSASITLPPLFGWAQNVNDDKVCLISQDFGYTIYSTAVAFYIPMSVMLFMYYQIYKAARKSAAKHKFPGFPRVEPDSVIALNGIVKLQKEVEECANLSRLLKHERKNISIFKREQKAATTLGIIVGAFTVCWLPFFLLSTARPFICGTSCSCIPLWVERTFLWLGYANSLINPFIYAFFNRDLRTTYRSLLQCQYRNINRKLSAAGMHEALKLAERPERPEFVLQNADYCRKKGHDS
Method: as §3, §4, §5
On the day of the assay, plates were decanted and 20 uL of drug buffer per well (1×HBSS, 20 mM HEPES, pH 7.4) was added using a Multidrop (ThermoFisher Scientific), and plates were allowed to equilibrate at 37° C. in a humidified incubator before receiving drug stimulation. Drug dilutions of all compounds were performed in McCorvy buffer (1×HBSS, 20 mM HEPES, pH 7.4, supplemented with 0.3% BSA fatty acid free (GoldBio), and 0.03% ascorbic acid). […] Before reading, addition of coelenterazine 400a (5 uM final concentration; Nanolight Technology) was performed by the [sequence]. Immediately after, plates were read at 400 nm Rluc and fluorescent GFP2 emission at 510 nm for BRET2 at 0.8 second per well using a PheraStarFSX (BMB Lab Tech).
as §6

## CCC(N)Cc1cc(OC)c(C)cc1OC (racemic) [Compound 32, 1-(2,5-dimethoxy-4-methylphenyl)butan-2-amine]
Cyclooxygenase COX-1
  % Response: −31%
Monoamine Oxidase MAO-A
  % Response: −3%
[1]; listed as (rac)-Ariadne
  % Response: more than 50%
[1]; listed as Ariadne
  % Response: 72%
hDAT
  IC50: > 50 µM
[2]; SC 10 mg/kg, 8 hr
  Mean plasma Concentration (ng/mL): BLQ
[2]; SC 10 mg/kg, 24 hr
  Mean brain Concentration (ng/g): BLQ
  Mean plasma Concentration (ng/mL): BLQ
[2]; SC 10 mg/kg, 48 hr
  Mean brain Concentration (ng/g): BLQ
  Mean plasma Concentration (ng/mL): BLQ
[2]; male, C57BL/6, mouse, brain and plasma, SC 10 mg/kg, 0.083 hr, read-out: Brain/Plasma ratio
  Kp at 0.083 h: 2.43
[2]; male, C57BL/6, mouse, brain and plasma, SC 10 mg/kg, 0.25 hr, read-out: Brain/Plasma ratio
  Kp at 0.25 h: 5.93
[2]; male, C57BL/6, mouse, brain and plasma, SC 10 mg/kg, 0.5 hr, read-out: Brain/Plasma ratio
  Kp at 0.5 h: 8.47
[2]; male, C57BL/6, mouse, brain and plasma, SC 10 mg/kg, 1 hr, read-out: Brain/Plasma ratio
  Kp at 1 h: 10.2
[2]; male, C57BL/6, mouse, brain and plasma, SC 10 mg/kg, 2 hr, read-out: Brain/Plasma ratio
  Kp at 2 h: 9.93
[2]; male, C57BL/6, mouse, brain and plasma, SC 10 mg/kg, 4 hr, read-out: Brain/Plasma ratio
  Kp at 4 h: 9.01
[2]; male, C57BL/6, mouse, brain, SC 10 mg/kg, 0.083 hr, read-out: Mean brain Concentration
  concentration at 0.083 hr: 1630 ng/g
[2]; male, C57BL/6, mouse, brain, SC 10 mg/kg, 0.25 hr, read-out: Mean brain Concentration
  concentration at 0.25 hr: 4760 ng/g
[2]; male, C57BL/6, mouse, brain, SC 10 mg/kg, 0.5 hr, read-out: Mean brain Concentration
  concentration at 0.5 hr: 5610 ng/g
[2]; male, C57BL/6, mouse, brain, SC 10 mg/kg, 1 hr, read-out: Mean brain Concentration
  concentration at 1 hr: 5240 ng/g
[2]; male, C57BL/6, mouse, brain, SC 10 mg/kg, 2 hr, read-out: Mean brain Concentration
  concentration at 2 hr: 1710 ng/g
[2]; male, C57BL/6, mouse, brain, SC 10 mg/kg, 4 hr, read-out: Mean brain Concentration
  concentration at 4 hr: 368 ng/g
[2]; male, C57BL/6, mouse, brain, SC 10 mg/kg, 8 hr, read-out: Mean brain Concentration
  concentration at 8 hr: 16.2 ng/g
[2]; male, C57BL/6, mouse, plasma, SC 10 mg/kg, 0.083 hr, read-out: Mean plasma Concentration
  concentration at 0.083 hr: 672 ng/mL
[2]; male, C57BL/6, mouse, plasma, SC 10 mg/kg, 0.25 hr, read-out: Mean plasma Concentration
  concentration at 0.25 hr: 802 ng/mL
[2]; male, C57BL/6, mouse, plasma, SC 10 mg/kg, 0.5 hr, read-out: Mean plasma Concentration
  concentration at 0.5 hr: 662 ng/mL
[2]; male, C57BL/6, mouse, plasma, SC 10 mg/kg, 1 hr, read-out: Mean plasma Concentration
  concentration at 1 hr: 512 ng/mL
[2]; male, C57BL/6, mouse, plasma, SC 10 mg/kg, 2 hr, read-out: Mean plasma Concentration
  concentration at 2 hr: 172 ng/mL
[2]; male, C57BL/6, mouse, plasma, SC 10 mg/kg, 4 hr, read-out: Mean plasma Concentration
  concentration at 4 hr: 40.9 ng/mL
[2]; male, C57BL/6, mouse, SC 10 mg/kg, brain, read-out: Cmax (ng/g), brain
  Cmax: 5610 ng/g
[2]; male, C57BL/6, mouse, SC 10 mg/kg, brain, read-out: T1/2 (hr), brain (converted)
  half-life: 0.89 h
[2]; male, C57BL/6, mouse, SC 10 mg/kg, brain, read-out: Tmax (hr), brain
  Tmax: 0.5 h
[2]; male, C57BL/6, mouse, SC 10 mg/kg, plasma, read-out: AUClast (hr*ng/mL), plasma
  AUC(0-t): 1180 ng·h/mL
[2]; male, C57BL/6, mouse, SC 10 mg/kg, plasma, read-out: Cmax (ng/mL), plasma
  Cmax: 802 ng/mL
[2]; male, C57BL/6, mouse, SC 10 mg/kg, plasma, read-out: T1/2 (hr), plasma (converted)
  half-life: 0.84 h
[2]; male, C57BL/6, mouse, SC 10 mg/kg, plasma, read-out: Tmax (hr), plasma
  Tmax: 0.25 h
[2]; mouse, in vivo
  brain penetration: high brain penetration
5-HT2B; EC50, agonist activity, 5-HTome screen
  EC50: < 1 µM
5-HT2B; read-out: Emax, agonist activity
  Emax: > 70%
5-HT7a receptor
  EC50: > 10 µM
5-HT7a receptor; 5-HTome screen
  agonist activity: Little to no agonist activity
